From patent publication US8399462B2, “JNK modulators” (Roche Palo Alto LLC, priority 2006, dated 2013)
Like-named read-outs stand apart in the source and are kept apart here.

What was measured:
[1] = molecular target: Human JNK1α1 (Homo sapiens, UniProt P45983); assay: JNK assay in vitro (phosphorylation of GST-ATF2 with [γ-33P]ATP), JNK1; type: biochemical
Protocol: (§1) JNK activity was measured by phosphorylation of GST-ATF2 (19-96) with [γ-^33P] ATP. […] Human JNK2α2 assay contains 1 nM enzyme, 1 μM ATF2, 8 μM ATP with 1 μCi [γ-^33P] ATP. Human JNK1α1 assay contains 2 nM enzyme, 1 μM ATF2, 6 μM ATP with 1 μCi [γ-^33P] ATP. Human JNK3 (Upstate Biotech #14-501M) assay contains 2 nM enzyme, 1 μM ATF2, 4 μM ATP with 1 μCi [γ-33P] ATP. The enzyme assay was carried out in the presence or absence of several compound concentrations. JNK and compound were pre-incubated for 10 min., followed by initiation of the enzymatic reaction by adding ATP and the substrate. The reaction mixture was incubated at 30° C. for 30 min. At the end of incubation, the reaction was terminated by transferring 25 μl of the reaction mixture to 150 μl of 10% glutathione Sepharose® slurry (Amersham # 27-4574-01) containing 135 mM EDTA. The reaction product was captured on the affinity resin, and washed on a filtration plate (Millipore, MABVNOB50) with phosphate buffered saline for six times to remove free radionucleotide. The incorporation of ^33P into ATF2 was quantified on a microplate scintillation counter (Packard Topcount). Compound inhibition potency on JNK was measured by IC50 value generated from ten concentration inhibition curves fitted into the 3-parameter model: % inhibition=Maximum/(I+(IC50/[Inhibitor])^slope). Data were analyzed on Microsoft Excel for parameter estimation.

[2] = molecular target: Human JNK2α2 (Homo sapiens, UniProt P45984); assay: JNK assay in vitro (phosphorylation of GST-ATF2 with [γ-33P]ATP), JNK2; type: biochemical
Sequence of Human JNK2α2 (P45984 whole entry): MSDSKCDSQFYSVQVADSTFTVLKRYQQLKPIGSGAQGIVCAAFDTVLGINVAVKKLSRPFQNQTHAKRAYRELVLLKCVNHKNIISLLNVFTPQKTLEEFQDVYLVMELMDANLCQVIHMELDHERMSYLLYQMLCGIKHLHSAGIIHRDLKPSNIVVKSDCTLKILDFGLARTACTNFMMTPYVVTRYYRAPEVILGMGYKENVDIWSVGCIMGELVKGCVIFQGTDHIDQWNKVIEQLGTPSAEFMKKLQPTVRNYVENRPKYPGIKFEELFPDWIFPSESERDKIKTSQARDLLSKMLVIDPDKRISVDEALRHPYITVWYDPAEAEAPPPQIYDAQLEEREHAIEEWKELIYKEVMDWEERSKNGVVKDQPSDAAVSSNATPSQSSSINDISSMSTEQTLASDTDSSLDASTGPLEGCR
Protocol: as §1

[3] = tested on: c-jun; assay: c-jun of Table 2 (method not described); type: cell-based
[4] = tested on: TNFα-induced IL-6 production; assay: Rat in vivo TNFα-induced IL-6 production assay; conditions: 1.5 h, oral gavage, 30 min before TNF-α i.p., blood 90 min after challenge
Protocol: Female Wistar-Han rats procured from Charles River Laboratories were allowed to acclimate for one week prior to use and achieve an approximate body weight of 95-130 g. Rats were administered test compound via oral gavage 30 min prior to an intraperitoneal challenge of 0.5 μg recombinant rat TNF-α (Biosource). Blood was collected via cardiocentesis 90 min after TNF-α challenge. Plasma was prepared using lithium heparin separation tubes (BD microtainer) and frozen at −80° C. until analyzed. IL-6 levels were determined using a rat specific IL-6 ELISA kit (Biosource).

[5] = tested on: inflammatory cell infiltration into BAL; assay: Ovalbumin-sensitized asthma model (inflammatory cell infiltration into BAL); type: in vivo, rat
Protocol: (A) Male Brown-Norway rats are sensitized i.p. with 100 μg of OA (ovalbumin) in 0.2 ml alum once every week for three weeks (day 0, 7, and 14). The week following the last sensitization, the rats are ready for testing. One to 2 days prior to challenge, animals are weighed. On day 21, the rats are dosed q.d. with either vehicle or compound formulation subcutaneously 30 minutes before OA aerosol challenge (1% OA for 45 minutes) and terminated 4 or 24 hours after challenge. At time of sacrifice, rats are anesthetized (urethane, approx. 2 g/kg, i.p.). Plasma is collected from rats for PK at termination. Blood is drawn from the abdominal aorta at termination. A tracheal cannula is inserted and the lungs are lavaged with 3×3 ml PBS. The BAL fluid is analyzed for total leukocyte number and differential leukocyte counts. Total leukocyte number in an aliquot of the cells (20-100 μl) is determined using a Coulter Counter. For differential leukocyte counts, 50-200 μl of the sample is centrifuged in a Cytospin and the slide stained with Diff-Quik. The proportions of monocytes, eosinophils, neutrophils and lymphocytes are counted under light microscopy using standard morphological criteria and expressed as a percentage. The remaining BAL fluid is centrifuged (1500 rpm, 10 min) and the supernatant is stored at −80° C. Lungs are also harvested for protein and/or RNA analyses.

[6] = tested on: inflammatory cell infiltration into BAL; assay: as above; type: in vivo, rat; conditions: 30 mg/kg

Sequence of Human JNK1α1 (P45983 1-384 isoform P45983-2): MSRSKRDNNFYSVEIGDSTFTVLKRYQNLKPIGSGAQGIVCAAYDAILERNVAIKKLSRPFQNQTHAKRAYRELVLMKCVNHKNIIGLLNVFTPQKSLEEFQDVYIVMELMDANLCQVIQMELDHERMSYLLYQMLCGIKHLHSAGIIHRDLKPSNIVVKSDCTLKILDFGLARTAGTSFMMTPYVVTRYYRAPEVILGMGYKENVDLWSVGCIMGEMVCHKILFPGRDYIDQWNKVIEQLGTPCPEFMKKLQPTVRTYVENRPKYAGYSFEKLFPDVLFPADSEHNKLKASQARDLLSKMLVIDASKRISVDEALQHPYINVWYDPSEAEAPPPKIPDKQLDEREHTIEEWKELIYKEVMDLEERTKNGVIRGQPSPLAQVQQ

Q: What does the source list for CCC(CO)NC(=O)[C@H]1CC[C@H](Nc2nccc(-n3ncc4ccccc43)n2)CC1 (some centres unmarked) [Compound 15]?
A: IC50 [1]: 67.8 nM; IC50 [2]: 458 nM; IC50 [3]: 1290 nM

Q: With O=C(NCC(O)CO)[C@H]1CC[C@H](Nc2nccc(-n3ncc4ccccc43)n2)CC1 (some centres unmarked) [Compound 16] as the molecule, how does the IC50 [1] read?
A: 70.8 nM

Q: What about the IC50 [2] of the same molecule?
A: 592 nM

Q: And the IC50 [3]?
A: 4130 nM

Q: What about the inhibition in vivo at 30 mg/kg [4] of the same molecule?
A: 47.4%

Q: Which IC50 [1] does the source give for CC(C)(O)c1cccc2c1ccn2-c1ccnc(N[C@H]2CC[C@H](O)CC2)n1 [Compound 18, 4-[4-(4-(2-hydroxyprop-2-yl)-indol-1-yl)-pyrimidin-2-ylamino]-cyclohexanol] here?
A: 73.5 nM

Q: And the IC50 [2]?
A: 337 nM

Q: And the IC50 [3]?
A: 1950 nM

Q: Which IC50 [1] does the source give for O=C(NC(CO)CO)[C@H]1CC[C@H](Nc2nccc(-n3ncc4ccccc43)n2)CC1 [Compound 26, 4-(4-indazol-1-yl-pyrimidin-2-ylamino)-cyclohexane carboxylic acid 1,3-dihydroxyprop-2-ylamide] here?
A: 85 nM

Q: What about the IC50 [2] of the same molecule?
A: 695 nM

Q: What about the IC50 [3] of the same molecule?
A: 1890 nM

Q: What about the inhibition in vivo at 30 mg/kg [4] of the same molecule?
A: 59.6%

Q: For COc1cccc2c1cnn2-c1ccnc(N[C@H]2CC[C@H](O)CC2)n1 [Compound 86, 4-[4-(4-methoxyindazol-1-yl)-pyrimidin-2-yl-amino]-cyclohexanol], which IC50 ([1]; Km concentrations of ATP and substrate, 6 μM ATP, 1 μM ATF2) is on record?
A: 22.8 nM

Q: What about the IC50 ([2]; Km concentrations of ATP and substrate, 8 μM ATP, 1 μM ATF2) of the same molecule?
A: 178 nM

Q: With N#CCOc1cccc2c1cnn2-c1ccnc(N[C@H]2CC[C@H](O)CC2)n1 [Compound 87, (1-[2-(4-hydroxycyclo-hexylamino)-pyrimidin-4-yl]-1H-indazol-4-yl-oxy)acetonitrile] as the molecule, how does the IC50 [1] read?
A: 29.7 nM

Q: And the IC50 [2]?
A: 191 nM

Q: And the IC50 [3]?
A: 1710 nM

Q: And the inhibition in vivo at 10 mg/kg [4]?
A: 64%

Q: For CC(C)C(=O)Nc1cccc2c1ccn2-c1ccnc(N[C@H]2CC[C@H](O)CC2)n1 [Compound 88, N-(1-[2-(4-hydroxy-cyclohexylamino)-pyrimidin-4-yl]-1H-indol-4-yl)-isobutyr-amide], which IC50 [1] is on record?
A: 70.9 nM

Q: And the IC50 [2]?
A: 480 nM

Q: And the melting point?
A: 211.8 to 212.6 °C

Q: For CC(C)(O)[C@H]1CC[C@H](Nc2nccc(-n3ncc4c(OCCCS(C)(=O)=O)cccc43)n2)CC1 [Compound 157, 2-(4-{4-[4-(3-methane-sulfonyl-propoxy)-indazol-1-yl]-pyrimidin-2-ylamino}-cyclohexyl)-propan-2-ol], which inhibition in vivo at 10 mg/kg [4] is on record?
A: 52.5%

Q: And the Eosinophils % inhibition ([5]; 10 mg/kg)?
A: 6.5%

Q: What about the “Eosinophils count in BAL” value ([5]; 10 mg/kg) of the same molecule?
A: 0.29 ± 0.09 × 10^5 per mL

Q: What about the Neutrophils % inhibition ([5]; 10 mg/kg) of the same molecule?
A: 41.3%

Q: And the “Neutrophils count in BAL” value ([5]; 10 mg/kg)?
A: 0.94 ± 0.10 × 10^5 per mL

Q: And the “Total cells % inhibition” value ([5]; 10 mg/kg)?
A: 3.3%

Q: What about the “Total cells count in BAL” value ([5]; 10 mg/kg) of the same molecule?
A: 2.67 ± 0.13 × 10^5 per mL

Q: What about the “Total cells % inhibition” value ([5]; 30 mg/kg) of the same molecule?
A: 10.9%

Q: What about the Eosinophils % inhibition [6] of the same molecule?
A: 22.6%

Q: And the “Eosinophils count in BAL” value [6]?
A: 0.24 ± 0.05 × 10^5 per mL

Q: And the Neutrophils % inhibition [6]?
A: 70.6%

Q: What about the “Neutrophils count in BAL” value [6] of the same molecule?
A: 0.47 ± 0.12 × 10^5 per mL

Q: And the “Total cells count in BAL” value [6]?
A: 2.46 ± 0.18 × 10^5 per mL

Q: Which results are given for CS(=O)(=O)CCCOc1cccc2c1cnn2-c1ccnc(N[C@H]2CC[C@H](NC(=O)CN3CCOCC3)CC2)n1 [Compound 159, N-(4-{4-[4-(3-methane-sulfonyl-propoxy)-indazol-1-yl]-pyrimidin-2-ylamino}-cyclohexyl)-2-morpholin-4-yl-acetamide]?
A: inhibition in vivo at 10 mg/kg [4]: 57.6%; melting point: 219.2 to 221.1 °C

Q: Which results are given for CC(C)(O)[C@H]1CC[C@H](Nc2nccc(-n3ccc4c(OCCCS(C)(=O)=O)cccc43)n2)CC1 [Compound 166, 2-(4-{4-[4-(3-methanesulfonyl-propoxy)-indol-1-yl]-pyrimidin-2-ylamino}-cyclohexyl)-propan-2-ol]?
A: inhibition in vivo at 10 mg/kg [4]: 48.5%; inhibition in vivo at 20 mg/kg [4]: 75.2%

Q: Which inhibition in vivo at 20 mg/kg [4] does the source give for CS(=O)(=O)CCCOc1cccc2c1ccn2-c1ccnc(N[C@H]2CC[C@H](C(=O)N3CC[C@H](O)C3)CC2)n1 [Compound 224, (3-hydroxy-pyrrolidin-1-yl)-(4-{4-[4-(3-methane-sulfonyl-propoxy)-indol-1-yl]-pyrimidin-2-ylamino}-cyclohexyl)-methanone] here?
A: 68.6%

Q: For CS(=O)(=O)CCCOc1cccc2c1ccn2-c1ccnc(N[C@H]2CC[C@H](C(=O)N3CC[C@@H](O)C3)CC2)n1 [Compound 225, (3-hydroxy-pyrrolidin-1-yl)-(4-{4-[4-(3-methane-sulfonyl-propoxy)-indol-1-yl]-pyrimidin-2-ylamino}-cyclohexyl)-methanone], which inhibition in vivo at 20 mg/kg [4] is on record?
A: 50.9%

Q: Which inhibition in vivo at 20 mg/kg [4] does the source give for CS(=O)(=O)CCCOc1cccc2c1ccn2-c1ccnc(N[C@H]2CC[C@H](C(=O)N3CCC(N)CC3)CC2)n1.Cl [Compound 233, (4-amino-piperidin-1-yl)-(4-{4-[4-(3-methane-sulfonyl-propoxy)-indol-1-yl]-pyrimidin-2-ylamino}-cyclohexyl)-methanone] here?
A: 57.8%

Q: And the melting point?
A: 247 to 248 °C

Q: For C[C@@H]1C[C@H]2[C@@H]3CCC4=CC(=O)C=C[C@]4(C)[C@@]3(F)[C@@H](O)C[C@]2(C)[C@@]1(O)C(=O)CO [Dexamethasone, dexamethasone, reference compound], which Eosinophils % inhibition ([5]; 10 mg/kg) is on record?
A: 41.9%

Q: What about the “Eosinophils count in BAL” value ([5]; 10 mg/kg) of the same molecule?
A: 0.18 ± 0.11 × 10^5 per mL

Q: What about the Neutrophils % inhibition ([5]; 10 mg/kg) of the same molecule?
A: 97.5%

Q: And the “Neutrophils count in BAL” value ([5]; 10 mg/kg)?
A: 0.04 ± 0.01 × 10^5 per mL

Q: And the “Total cells % inhibition” value ([5]; 10 mg/kg)?
A: 23.2%

Q: With CS(=O)(=O)N[C@H]1CC[C@H](Nc2nccc(-n3ncc4ccccc43)n2)CC1 [Example 12, trans-N-[4-(4-Indazol-1-ylpyrimidin-2-ylamino)-cyclohexyl]-methanesulfonamide] as the molecule, how does the melting point read?
A: 269.6 to 270.4 °C

Q: Which melting point does the source give for CC1(O)CCC(Nc2nccc(-n3ncc4ccccc43)n2)CC1 (centres unmarked) [Example 13, 4-(4-Indazol-1-ylpyrimidin-2-ylamino)-1-methylcyclohexanol] here?
A: 168.1 to 170.1 °C

Q: With O=S(=O)(Cc1ccccc1)c1cccc2c1ccn2-c1ccnc(N[C@H]2CC[C@H](O)CC2)n1 [Example 14, trans-4-[4-(4-Phenylmethanesulfonylindol-1-yl)-pyrimidin-2-yl-amino]-cyclohexanol] as the molecule, how does the melting point read?
A: 132.1 to 134.5 °C

Q: With O=c1[nH]n(-c2ccnc(N[C@H]3CC[C@H](O)CC3)n2)c2ccccc12 [Example 16, trans-1-[2-(4-hydroxycyclohexylamino)-pyrimidin-4-yl]-1,2-dihydroindazol-3-one] as the molecule, how does the melting point read?
A: 263.5 to 264.4 °C

Q: Which melting point does the source give for Cn1cc(-c2ccnc(N[C@H]3CC[C@H](O)CC3)n2)c2ccccc21 [Example 17, trans-4-[4-(1-Methyl-1H-indol-3-yl)-pyrimidin-2-ylamino]-cyclohexanol] here?
A: 194.5 to 195.3 °C

Q: With CC(=O)Nc1ccc2cnn(-c3ccnc(N[C@H]4CC[C@H](O)CC4)n3)c2c1 [Example 19, trans-N-{1-[2-(4-Hydroxycyclohexylamino)-pyrimidin-4-yl]-1H-indazol-6-yl}-acetamide] as the molecule, how does the melting point read?
A: 288 to 289.5 °C

Q: With OCc1ccc2cnn(-c3ccnc(N[C@H]4CC[C@H](O)CC4)n3)c2c1 [Example 20, trans-4-[4-(6-Hydroxymethylindazol-1-yl)-pyrimidin-2-ylamino]-cyclohexanol] as the molecule, how does the melting point read?
A: 216 to 217.7 °C
